Data from ChEMBL document CHEMBL3045337, “A Comparative Study: Evaluation of Antioxidant Activity of Melatonin and Some Indole Derivatives” (Med Chem Res, 2005).

Experiments:
Liver [1] = test: Antioxidant activity in Rattus norvegicus (rat) liver homogenate assessed as inhibition of lipid peroxidation measuring TBARS production at 10 '-3 M after 1 hr by spectrophotometry relative to control; assay type: functional, tissue-based
[2] = Antioxidant activity assessed as superoxide radical scavenging activity at 10 '-3 M measured for 3 min by spectrophotometry relative to control; assay type: functional
Liver [3] = test: Antioxidant activity in Rattus norvegicus (rat) liver homogenate assessed as inhibition of lipid peroxidation measuring TBARS production at 10 '-4 M after 1 hr by spectrophotometry relative to control; assay type: functional, tissue-based
[4] = Antioxidant activity assessed as superoxide radical scavenging activity at 10 '-4 M measured for 3 min by spectrophotometry relative to control; assay type: functional

## CCCCCNC(=O)CCc1c[nH]c2ccccc12
Liver [1]
  inhibition: 25%
[2]
  Activity: 87%
Liver [3]
  TBARS production (% of control): 94%
[4]
  Superoxide level, % of control: 103%

## COC(=O)CCc1c[nH]c2ccccc12
Liver [1]
  inhibition: 56%
[2]
  Activity: 70%
Liver [3]
  TBARS production (% of control): 114%
[4]
  Superoxide level, % of control: 54%

## CCCCNC(=O)CCc1c[nH]c2ccccc12
Liver [1]
  inhibition: 28%
[2]
  Activity: 85%
Liver [3]
  TBARS production (% of control): 100%
[4]
  Superoxide level, % of control: 104%

## CCN(CC)CCCNC(=O)CCc1c[nH]c2ccccc12
Liver [1]
  inhibition: 31%
[2]
  Activity: 90%
Liver [3]
  TBARS production (% of control): 96%
[4]
  Superoxide level, % of control: 108%

## COc1ccc2[nH]cc(CCNC(C)=O)c2c1
Liver [1]
  inhibition: 28%
[2]
  Activity: 84%
Liver [3]
  TBARS production (% of control): 93%
[4]
  Superoxide level, % of control: 90%

## Cc1c(C)c2c(c(C)c1O)CC[C@@](C)(CCC[C@H](C)CCC[C@H](C)CCCC(C)C)O2
Liver [1]
  inhibition: 27%
[2]
  Activity: 14%
Liver [3]
  TBARS production (% of control): 46%
[4]
  Superoxide level, % of control: 83%

## CN(C)CCNC(=O)CCc1c[nH]c2ccccc12
Liver [1]
  inhibition: 28%
[2]
  Activity: 83%
Liver [3]
  TBARS production (% of control): 101%
[4]
  Superoxide level, % of control: 94%

## CCN(CC)CCNC(=O)CCc1c[nH]c2ccccc12
Liver [1]
  inhibition: 26%
[2]
  Activity: 91%
Liver [3]
  TBARS production (% of control): 51%
[4]
  Superoxide level, % of control: 102%

## CN(C)CCCNC(=O)CCc1c[nH]c2ccccc12
Liver [1]
  inhibition: 27%
[2]
  Activity: 98%
Liver [3]
  TBARS production (% of control): 102%
[4]
  Superoxide level, % of control: 98%

## CCCNC(=O)CCc1c[nH]c2ccccc12
Liver [1]
  inhibition: 28%
[2]
  Activity: 94%
Liver [3]
  TBARS production (% of control): 102%
[4]
  Superoxide level, % of control: 100%
